Source: ChEMBL document CHEMBL3045031, “Study on synthesis of thalidomide analogues and their bioactivities; inhibition on iNOS pathway and cytotoxic effects” (Med Chem Res, 2012)

Experiments:
HL-60 = test: Cytotoxicity against Homo sapiens (human) HL60 cells after 24 hr by MTT assay; assay type: functional, cell-based; details: HL-60, 24 h
NUGC = test: Cytotoxicity against Homo sapiens (human) NUGC cells after 24 hr by MTT assay; assay type: functional, cell-based
HEp-2 = test: Cytotoxicity against Homo sapiens (human) Hep2 cells after 24 hr by MTT assay; assay type: functional, cell-based; details: HEp-2, 24 h
[1] = molecular target: T1, Nitric oxide synthase, inducible (Mus musculus) (UniProt P29477); test: Inhibition of iNOS in Mus musculus (mouse) RAW 264.7 cells assessed as inhibition of LPS-induced nitrite production pretreated for 24 hr before stimulation with LPS measured after 18 hr by […]; parameters: concentration or dose not given beside the values; details: concentration not given here
T1 sequence (whole entry): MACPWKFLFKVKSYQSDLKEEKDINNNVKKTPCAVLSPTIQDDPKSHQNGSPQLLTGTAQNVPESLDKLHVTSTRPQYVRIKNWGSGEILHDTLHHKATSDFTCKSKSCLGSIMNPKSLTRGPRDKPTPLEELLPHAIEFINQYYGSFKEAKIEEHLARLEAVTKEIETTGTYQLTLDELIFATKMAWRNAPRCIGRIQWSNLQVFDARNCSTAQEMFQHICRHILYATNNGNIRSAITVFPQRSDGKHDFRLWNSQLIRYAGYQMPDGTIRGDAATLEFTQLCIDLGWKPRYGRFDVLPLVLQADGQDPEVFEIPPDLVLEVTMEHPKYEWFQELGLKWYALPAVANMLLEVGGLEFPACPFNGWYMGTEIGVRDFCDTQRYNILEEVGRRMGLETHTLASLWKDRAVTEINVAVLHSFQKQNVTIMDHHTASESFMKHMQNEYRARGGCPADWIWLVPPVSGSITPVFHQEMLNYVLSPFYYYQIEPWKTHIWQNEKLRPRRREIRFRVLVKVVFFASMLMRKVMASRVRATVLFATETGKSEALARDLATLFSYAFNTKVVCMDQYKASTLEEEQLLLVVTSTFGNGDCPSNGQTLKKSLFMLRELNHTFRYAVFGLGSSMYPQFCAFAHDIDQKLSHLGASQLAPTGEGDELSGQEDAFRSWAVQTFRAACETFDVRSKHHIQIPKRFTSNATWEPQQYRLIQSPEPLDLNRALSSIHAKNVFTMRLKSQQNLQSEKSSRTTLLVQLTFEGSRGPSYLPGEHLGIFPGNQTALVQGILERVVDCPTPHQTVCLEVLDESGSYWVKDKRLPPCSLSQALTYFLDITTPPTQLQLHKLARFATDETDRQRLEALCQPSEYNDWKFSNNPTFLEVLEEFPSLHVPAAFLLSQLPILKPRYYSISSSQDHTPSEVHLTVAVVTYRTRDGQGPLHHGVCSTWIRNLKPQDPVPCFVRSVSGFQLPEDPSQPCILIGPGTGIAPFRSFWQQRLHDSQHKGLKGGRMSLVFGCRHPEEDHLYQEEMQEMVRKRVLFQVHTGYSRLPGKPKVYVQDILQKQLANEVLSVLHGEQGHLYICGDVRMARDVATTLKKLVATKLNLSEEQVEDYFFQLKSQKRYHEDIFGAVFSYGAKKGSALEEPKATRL

[2] = Cytotoxicity against Homo sapiens (human) HONE1 cells after 24 hr by MTT assay; assay type: functional, cell-based; details: HONE1, 24 h

Row | SMILES | IC50 (HL-60) | IC50 (NUGC) | IC50 (HEp-2) | inhibition [1] | IC50 [2]
1 | O=C1c2ccccc2C(=O)N1c1cccc([N+](=O)[O-])c1 | 174 µM | > 200 µM | 179 µM | 90.6% | 
2 | COc1ccc(N2C(=O)C3C4C=CC(CC4)C3C2=O)cc1 (stereo unspecified) | > 200 µM | > 200 µM | > 200 µM | 84.6% | 
3 | O=C1c2ccccc2C(=O)N1c1ccc(-c2ccccc2)cc1 | 119 µM | > 200 µM | 40.4 µM | 84.6% | > 200 µM
4 | Nc1cccc(N2C(=O)C3C4C=CC(CC4)C3C2=O)c1 (stereo unspecified) | 64.1 µM |  | 53.4 µM | 68.4% | > 200 µM
5 | O=C1c2ccccc2C(=O)N1c1ccc(Cl)cn1 | 67.2 µM | > 200 µM | 56.7 µM | 94.5% | > 200 µM
6 | Nc1ccc(CN2C(=O)c3ccccc3C2=O)cc1 | > 200 µM | > 200 µM |  | 81.4% | > 200 µM
7 | Cc1ccc2c(c1)C(=O)N(c1ccc(/N=N\c3ccccc3)cc1)C2=O | 59.5 µM | > 200 µM | 104 µM | 91.9% | > 200 µM
8 | Nc1cccc(CN2C(=O)c3ccccc3C2=O)c1 | 78.1 µM | > 200 µM |  | 91.9% | > 200 µM
9 | Cc1cccc2c1C(=O)N(Cc1ccc(N)cc1)C2=O | > 200 µM | > 200 µM |  | 80.7% | > 200 µM
10 | O=C1C2C3C=CC(CC3)C2C(=O)N1c1ccccc1 (stereo unspecified) | 118 µM |  | 41.2 µM | 82% | > 200 µM
11 | Nc1ccc(N2C(=O)c3cccc4cccc(c34)C2=O)cc1 | > 200 µM | > 200 µM | 43.9 µM | 90.6% | > 200 µM
12 | O=C1c2ccccc2C(=O)N1c1ccccc1N1C(=O)c2ccccc2C1=O | > 200 µM | > 200 µM | 56.8 µM | 85.3% | > 200 µM
13 | N#Cc1ccccc1N1C(=O)c2ccccc2C1=O | > 200 µM | > 200 µM | > 200 µM | 80.1% | > 200 µM
14 | O=C1c2ccccc2C(=O)N1c1ccccc1 [N-PHENYL-PHTHALIMIDE] | > 200 µM | > 200 µM | > 200 µM | 89.2% | 
15 | O=C1C2C3C=CC(CC3)C2C(=O)N1c1ccc(Cl)cn1 (stereo unspecified) | > 200 µM | > 200 µM | > 200 µM | 44.9% | > 200 µM
16 | Cc1ccc2c(c1)C(=O)N(c1ccc([N+](=O)[O-])cn1)C2=O | > 200 µM | > 200 µM | 172 µM | 74.8% | > 200 µM
17 | O=C1c2ccccc2C(=O)N1c1ccc(Cl)cc1 | > 200 µM | > 200 µM | 178 µM | 71.5% | 

Row | SMILES | IC50 (HL-60) | IC50 (NUGC) | IC50 (HEp-2) | inhibition [1] | IC50 [2]
18 | O=C1c2ccccc2C(=O)N1c1ccccn1 | > 200 µM | > 200 µM | 65.8 µM | 67.6% | 156 µM
19 | O=C1C2C3C=CC(CC3)C2C(=O)N1c1ccc(Br)cn1 (stereo unspecified) | > 200 µM | > 200 µM | 150 µM | 56.6% | 
20 | O=C1C2C3C=CC(CC3)C2C(=O)N1c1ccc(-c2ccccc2)cc1 (stereo unspecified) | 104 µM | > 200 µM | 46.3 µM | 86.6% | 
21 | N#Cc1ccc(N2C(=O)[C@@H]3C4C=CC(CC4)[C@@H]3C2=O)cc1 |  |  |  | 68.4% | > 200 µM
22 | Nc1ccccc1N1C(=O)C2C3C=CC(CC3)C2C1=O (stereo unspecified) | 67.6 µM | > 200 µM | 32.5 µM | 76.9% | > 200 µM
23 | Nc1cccc(N2C(=O)c3cccc4cccc(c34)C2=O)c1 | > 200 µM | > 200 µM | 147 µM | 81.4% | > 200 µM
24 | Cc1ccc2c(c1)C(=O)N(c1ccc(-c3ccccc3)cc1)C2=O | 59.5 µM |  | 104 µM | 70.9% | > 200 µM
25 | O=C1c2ccccc2C(=O)N1c1ccc(S)cc1 | > 200 µM | > 200 µM | > 200 µM | 94.5% | > 200 µM
26 | CC1=C(C)C(=O)N(Cc2ccccc2N)C1=O | 139 µM | > 200 µM |  | 72.8% | > 200 µM
27 | COc1ccc(N2C(=O)c3ccccc3C2=O)cc1 | > 200 µM | > 200 µM | > 200 µM | 87.3% | > 200 µM
28 | O=C1CCC(N2C(=O)c3ccccc3C2=O)C(=O)N1 (stereo unspecified) |  |  |  | 28.2% | 
29 | O=C1C2C3C=CC(CC3)C2C(=O)N1c1ncc(Cl)cc1Cl (stereo unspecified) | 139 µM |  | > 200 µM | 77.9% | > 200 µM
30 | Nc1ccc(N2C(=O)[C@@H]3C4C=CC(CC4)[C@@H]3C2=O)cc1 | 166 µM |  | > 200 µM | 87.9% | 
31 | Cc1ccc2c(c1)C(=O)N(Cc1ccccc1N)C2=O | > 200 µM | > 200 µM |  | 98.4% | > 200 µM
32 | O=C1c2cccc3cccc(c23)C(=O)N1c1ccccc1 | > 200 µM | > 200 µM | 44.2 µM | 67.6% | > 200 µM
33 | Nc1ccccc1CN1C(=O)C2C3C=CC(CC3)C2C1=O (stereo unspecified) | > 200 µM | > 200 µM |  | 75.5% | > 200 µM
34 | O=C1C2C3C=CC(CC3)C2C(=O)N1c1ccc(S)cc1 (stereo unspecified) |  |  |  | 87.9% | 
